Experimental data as given in patent US20060039879A1, “Use of particular polyols for preventing the hair from breaking, composition comprising them and cosmetic hair treatment process” (L'OREAL, priority 2004, published 2006).

What was measured:
[1] = Level of premature breakage of hairs in a tensile test (Zwick tensile testing machine); conditions: 5% by weight compound in water; 30 natural African hairs immersed 3 days at 40° C., no final rinsing; hairs 30 mm, drawn at 10 mm/minute; untreated control R = 0.27
Procedure: The hair used for the following tests was left in a glove box at 25° C. and 45% relative humidity for about 24 hours.
A composition was prepared by mixing together 5% by weight of the compound of Example 1 and 95% by weight of water relative to the total weight of the composition.
30 natural African hairs were then treated with this composition: the hairs were immersed for 3 days at 40° C., without final rinsing, and their level of premature breakage was then compared with that of a batch of untreated natural control hairs.
Mechanical tests were performed using a Zwick tensile testing machine on the hairs 30 mm long. The hairs were drawn at a speed of 10 mm/minute.
The level of premature breakage of the treated African hair, on the one hand, and of the untreated African hair, on the other hand, was evaluated as follows: R=1—(number of hairs showing breakage under tension in the hardening zone/N) • N being the total number of hairs tested.

[2] = treatment with aqueous solutions of the humectant; breakage for small elongations; cited from earlier work

Q: With `O=C(NCCO)NCCO` [Example 1, N,N′-bis(2-hydroxyethyl)urea] as the molecule, how does the “Level of premature breakage R, first test” value [1] read?
A: R = 0.17

Q: And the “Level of premature breakage R, second test” value [1]?
A: R = 0.10

Q: Which “Improving the mechanical strength of Negroid hair and reducing its level of premature breakage” value [2] does the source give for `OCC(O)CO` [glycerol] here?
A: effective
